# Experimental data from patent US8933195B2, “Histone deacetylase inhibitors and synthetic method thereof and use thereof in manufacture of medicaments” (Nanjing Yoko Biomedical R & D Ltd., priority 2011, dated 2015).
# Like-named read-outs stand apart in the source and are kept apart here.
# Columns and labels:
# [1] = tested on: DU145 (human prostate cancer cells); assay: MTT cancer cell growth inhibition; type: cell-based; details: DU-145, 72 h
# Source text: (§1) 1. Experimental principles: the inhibition of cancer cell growth with compounds is detected by an MTT method. The principle of the MTT method is as follows: yellow thiazolyl blue may penetrate through cell membranes and enter into cells, succinate dehydrogenase in living cell mitochondria may reduce exogenous MTT into water-insoluble ianthinus acicular Formazan crystals which deposit in the cells, the crystals can be dissolved with dimethyl sulfoxide (DMSO), the optical density of the crystals is detected with an enzyme-linked immunometric meter at the wavelength of 490 nm/570 nm, and the number of cells can be indirectly reflected.
# (§2) 2. Experimental materials: the used cancer cell lines are Hela (human cervical cancer cells), MCF-7 (human breast cancer cells), BGC-823 (human gastric cancer cells), A549 (human lung cancer cells), HT1080 (human fibrosarcoma cells), A431 (human epidermal squamous cell carcinoma cells), HUVEC (human umbilical vein endothelial cells), DU145 (human prostate cancer cells), K562 (human leukemia cells), U937 (human leukemia cells), Pac-1 (human pancreatic cancer cells), and MOLT-4 (human acute lymphoblastic leukemia cells), which are cultured with a DMEM+10% FBS culture medium or a 1640+10% FBS culture medium, respectively.
# (§3) Experimental groups: 190 μl cell suspension+10 μl pharmaceuticals in different concentrations (the final concentration is 10^−5-10^−10M)
# (§4) Negative control group: 190 μl cell suspension+10 μl 2% DMSO (the final concentration of DMSO is 0.1%)
# (§5) a) Cells are inoculated on a 96-pore plate, with 1500 cells and 190 μl for each hole, and cultured overnight in a 5% CO2 incubator at 37.
# (§6) b) 10 μl of different pharmaceuticals is added into each hole the next day, with the final concentration of the pharmaceuticals of 10^−5-10^−10M and three parallel holes, and incubated for 72 h in a 5% CO2 incubator at 37.
# (§7) c) 20 μl of 5 mg/mL MTT is added into each hole, and incubated for 4 h in a 5% CO2 incubator at 37.
# (§8) d) Supernatant is removed. 100 μl of DMSO is added into each hole and vibrated.
# (§9) e) The reading is 570 nm. The cell survival rate is calculated.
# [2] = tested on: MOLT-4 (human acute lymphoblastic leukemia cells); assay: MTT cancer cell growth inhibition; type: cell-based; details: 72 h
# Source text: as §1, §2, §3, §4, §5, §6, §7, §8, §9
# [3] = tested on: U937 (human leukemia cells); assay: MTT cancer cell growth inhibition; type: cell-based; details: U-937, 72 h
# Source text: as §1, §2, §3, §4, §5, §6, §7, §8, §9
# [4] = tested on: Hela (human cervical cancer cells); assay: MTT cancer cell growth inhibition; type: cell-based; details: 72 h
# Source text: as §1, §2, §3, §4, §5, §6, §7, §8, §9
# [5] = tested on: HT1080 (human fibrosarcoma cells); assay: MTT cancer cell growth inhibition; type: cell-based; details: HT-1080, 72 h
# Source text: as §1, §2, §3, §4, §5, §6, §7, §8, §9
# PANC-1 = assay: MTT cancer cell growth inhibition; type: cell-based; details: Homo sapiens, 72 h
# Source text: as §1, §2, §3, §4, §5, §6, §7, §8, §9
# [6] = tested on: BGC-823 (human gastric cancer cells); assay: MTT cancer cell growth inhibition; type: cell-based; details: 72 h, read-out: GI50 BGC823
# Source text: as §1, §2, §3, §4, §5, §6, §7, §8, §9
# [7] = tested on: A549 (human lung cancer cells); assay: MTT cancer cell growth inhibition; type: cell-based; details: 72 h
# Source text: as §1, §2, §3, §4, §5, §6, §7, §8, §9
# [8] = tested on: MCF-7 (human breast cancer cells); assay: MTT cancer cell growth inhibition; type: cell-based; details: MCF7, 72 h
# Source text: as §1, §2, §3, §4, §5, §6, §7, §8, §9
# HDAC1 = HDAC1 (Homo sapiens, UniProt Q13547); assay: Measurement of biochemical activities of HDAC (fluorescently-labeled acetylated lysine substrate)
# Sequence of HDAC1 (Q13547 whole entry, species assumed): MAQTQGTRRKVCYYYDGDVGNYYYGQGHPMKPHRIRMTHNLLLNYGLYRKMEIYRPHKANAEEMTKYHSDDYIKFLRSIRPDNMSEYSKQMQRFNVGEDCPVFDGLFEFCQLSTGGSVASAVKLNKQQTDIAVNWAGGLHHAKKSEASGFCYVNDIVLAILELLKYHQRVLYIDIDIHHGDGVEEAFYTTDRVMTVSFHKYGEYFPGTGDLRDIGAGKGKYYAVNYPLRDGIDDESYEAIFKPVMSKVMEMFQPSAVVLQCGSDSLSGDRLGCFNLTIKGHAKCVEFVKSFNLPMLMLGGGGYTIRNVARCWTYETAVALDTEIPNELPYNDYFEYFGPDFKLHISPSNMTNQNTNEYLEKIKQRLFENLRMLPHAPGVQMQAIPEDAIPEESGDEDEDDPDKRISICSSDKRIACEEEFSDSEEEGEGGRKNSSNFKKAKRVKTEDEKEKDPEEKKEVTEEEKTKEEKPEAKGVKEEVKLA
# Procedure: (§10) 1. Measurement principles: the measurement of biochemical activities of compounds is determined according to the degree of the compounds inhibiting the deacylation of HDAC enzyme. After the fluorescently-labeled substrate containing acetylated lysine side chain reacts with the HDAC enzyme, the fluorogenic substrate is deacetylated. After the deacetylated fluorescently-labeled substrate is cracked by the enzyme, a fluorescent substance is released. The fluorescent substance generates emitting light of 460 nm under the excitation of light of 360 nm.
# (§11) 2. Detailed steps: the substrate of HDAC is diluted to […] (the reaction concentration is […]) with a reaction buffer. HDAC enzyme is diluted to a proper concentration. The compounds to be detected in different concentrations are added. The mixture reacts for 30 min at 37. Then the developer with the same volume and twice concentration of the substrate is added into the mixture. The mixture is incubated for 15 min at room temperature. Finally, the reading is measured with a micro plate scanner. The excitation light is 360 nm, the emitting light is 460 nm, and the data is processed with Prime 4 software.
# HDAC7 = target: T1, HDAC7 (Homo sapiens, UniProt Q8WUI4); assay: as above
# T1 sequence (Q8WUI4 1-952): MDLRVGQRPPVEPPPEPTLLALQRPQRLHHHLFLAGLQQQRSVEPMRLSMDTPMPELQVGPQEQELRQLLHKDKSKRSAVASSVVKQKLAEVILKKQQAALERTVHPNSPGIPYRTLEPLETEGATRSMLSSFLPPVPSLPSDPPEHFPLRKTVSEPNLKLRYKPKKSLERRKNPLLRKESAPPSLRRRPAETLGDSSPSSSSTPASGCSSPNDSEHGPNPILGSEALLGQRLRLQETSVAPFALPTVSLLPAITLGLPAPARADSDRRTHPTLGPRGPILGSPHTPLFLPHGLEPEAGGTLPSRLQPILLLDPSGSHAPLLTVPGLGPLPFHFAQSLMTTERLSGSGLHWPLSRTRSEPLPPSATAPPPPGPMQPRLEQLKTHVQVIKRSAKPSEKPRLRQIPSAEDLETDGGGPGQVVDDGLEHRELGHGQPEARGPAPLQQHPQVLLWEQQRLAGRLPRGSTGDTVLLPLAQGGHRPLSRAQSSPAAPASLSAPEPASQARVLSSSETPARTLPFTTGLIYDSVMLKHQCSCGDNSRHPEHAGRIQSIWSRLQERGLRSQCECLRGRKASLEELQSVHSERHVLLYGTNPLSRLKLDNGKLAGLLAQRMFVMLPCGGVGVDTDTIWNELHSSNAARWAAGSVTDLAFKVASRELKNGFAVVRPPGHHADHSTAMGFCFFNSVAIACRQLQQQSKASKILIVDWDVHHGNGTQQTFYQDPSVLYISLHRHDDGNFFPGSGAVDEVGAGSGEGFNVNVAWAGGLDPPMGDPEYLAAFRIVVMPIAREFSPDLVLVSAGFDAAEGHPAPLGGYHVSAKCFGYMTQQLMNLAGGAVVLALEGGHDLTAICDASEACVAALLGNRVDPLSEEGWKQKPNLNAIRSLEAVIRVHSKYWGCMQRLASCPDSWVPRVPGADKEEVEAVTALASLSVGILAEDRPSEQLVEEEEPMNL
# Procedure: as §10, §11
# Incap = assay: MTT cancer cell growth inhibition; type: cell-based; details: 72 h
Compound,GI50 [1] [nM],GI50 [2] [nM],GI50 [3] [nM],GI50 [4] [nM],GI50 [5] [nM],GI50 (PANC-1) [nM],GI50 [6] [nM],GI50 [7] [nM],GI50 [8] [nM],IC50 (HDAC1; read-out: IC50 HDAC1) [µM],IC50 HDAC7 (HDAC7),GI50 (Incap) [nM],IC50 (HDAC1) [µM]
C/C=C1\NC(=O)c2csc(n2)CNC(=O)C[C@@H](/C=C/CCSC(=O)CCCCCCC)OC(=O)[C@H](CCSC)NC1=O [Compound 1-10],10,20,20,100,100,1300,200,100,1,< 0.1,no activity,80,
C/C=C1\NC(=O)c2csc(n2)CNC(=O)C[C@@H](/C=C/CCS)OC(=O)[C@H](C(C)C)NC1=O [Compound 6-1],34,650,5,600,50,230,360,100,59,< 0.1,no activity,42,
C/C=C1\NC(=O)c2csc(n2)CNC(=O)C[C@@H](/C=C/CCSC(=O)CCCCCCC)OC(=O)[C@@H](C)NC1=O [Compound 1-5],100,1000,100,2000,1000,3000,100,600,800,< 10,no activity,600,
C/C=C1\NC(=O)c2csc(n2)CNC(=O)C[C@@H](/C=C/CCSC(=O)CCCCCCC)OC(=O)[C@H](CC)NC1=O [Compound 1-2],4,30,4,100,100,200,20,300,50,< 0.19,no activity,70,
C/C=C1\NC(=O)c2csc(n2)[C@H](C(C)C)NC(=O)C[C@@H](/C=C/CCSC(=O)CCCCCCC)OC(=O)[C@H](C(C)C)NC1=O [Compound 4-1],1650,4020,1560,260,850,1340,230,540,130,,no activity,1030,< 10
C/C=C1\NC(=O)c2csc(n2)CNC(=O)C[C@@H](/C=C/CCSC(=O)CCCCCCC)OC(=O)[C@H](CC(C)C)NC1=O [Compound 1-11],6,10,9,100,80,800,160,5090,90,< 0.1,no activity,30,

# Continued, in another order:
GI50 [1] [nM],GI50 [2] [nM],GI50 [3] [nM],GI50 [4] [nM],GI50 [5] [nM],GI50 (PANC-1) [nM],GI50 [6] [nM],GI50 [7] [nM],GI50 [8] [nM],IC50 (HDAC1; read-out: IC50 HDAC1) [µM],IC50 HDAC7 (HDAC7),GI50 (Incap) [nM],Compound,IC50 (HDAC1) [µM]
560,64500,12600,500,12000,45000,56200,4200,650,< 10,no activity,11600,C/C=C1\NC(=O)c2cccc(c2)CNC(=O)C[C@@H](/C=C/CCSC(=O)CCCCCCC)OC(=O)[C@H](C(C)C)NC1=O [Compound 2-6],
56500,26200,10200,600,4500,600,1600,2000,2300,< 10,no activity,23600,C/C=C1\NC(=O)C2N=C(CNC(=O)C[C@@H](/C=C/CCSC(=O)CCCCCCC)OC(=O)[C@H](C(C)C)NC1=O)O[C@@H]2C (stereo partly drawn) [Compound 2-2],
5460,1030,21000,12000,1020,26400,20600,2130,26000,< 10,no activity,560,C/C=C1\NC(=O)C2=NC(=NC2)CNC(=O)C[C@@H](/C=C/CCSC(=O)CCCCCCC)OC(=O)[C@H](C(C)C)NC1=O [Compound 2-5],
50,2120,140,450,60,4130,5940,1090,1200,< 10,no activity,450,CCCCCCCC(=O)SCC/C=C/[C@@H]1CC(=O)NCc2nc(cs2)C(=O)NCC(=O)N[C@@H](C(C)C)C(=O)O1 [Compound 3-3],
50,100,1300,200,4100,2060,5000,900,500,< 0.1,no activity,2010,C/C=C1\NC(=O)c2coc(n2)CNC(=O)C[C@@H](/C=C/CCSC(=O)CCCCCCC)OC(=O)[C@H](C(C)C)NC1=O [Compound 2-1],
6400,900,18600,23000,1600,4200,2600,4500,52600,< 10,no activity,85200,C/C=C1\NC(=O)C2C=NC(=N2)CNC(=O)C[C@@H](/C=C/CCSC(=O)CCCCCCC)OC(=O)[C@H](C(C)C)NC1=O (stereo partly drawn) [Compound 2-4],
